According to the supplement of paper PMC10307832:

Assays:
Experiment in all cases: relative viability (nuclei count vs DMSO), 5 days (fraction); higher = more cells survive
Crenolanib + Luminespib = compound: CC1(COc2ccc3c(c2)ncn3-c2ccc3cccc(N4CCC(N)CC4)c3n2)COC1 [Crenolanib] + CCNC(=O)c1noc(-c2cc(C(C)C)c(O)cc2O)c1-c1ccc(CN2CCOCC2)cc1 [Luminespib] (partner 0.01 µM)
Procedure, shortened: (§1)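 Dosing by pin tool came one day after lung cancer cell lines were seeded in 1536-well plates, using either one drug or a fixed anchor-drug dose plus five library-drug doses (not always all listed) in √10 steps. After 5 days, nuclei were counted on 4× images. Relative viability is treated-well nuclei count divided by vehicle-well nuclei count, and values are medians of duplicate plates.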

Crenolanib + Pictilisib = compound: CC1(COc2ccc3c(c2)ncn3-c2ccc3cccc(N4CCC(N)CC4)c3n2)COC1 [Crenolanib] + CS(=O)(=O)N1CCN(Cc2cc3nc(-c4cccc5[nH]ncc45)nc(N4CCOCC4)c3s2)CC1 [Pictilisib] (partner 1 µM)
Procedure, shortened: as §1

Tivantinib + OSI-027 = compound: O=C1NC(=O)[C@@H](c2cn3c4c(cccc24)CCC3)[C@@H]1c1c[nH]c2ccccc12 [Tivantinib] + COc1cccc2cc(-c3nc([C@H]4CC[C@H](C(=O)O)CC4)n4ncnc(N)c34)[nH]c12 [OSI-027] (partner 0.5 µM)
Procedure, shortened: as §1

Tivantinib + AZD7762 = compound: O=C1NC(=O)[C@@H](c2cn3c4c(cccc24)CCC3)[C@@H]1c1c[nH]c2ccccc12 [Tivantinib] + NC(=O)Nc1cc(-c2cccc(F)c2)sc1C(=O)N[C@H]1CCCNC1 [AZD7762] (partner 0.2 µM)
Procedure, shortened: as §1

Row | Cell Line | relative viability (Crenolanib + Luminespib; first compound 0.01 µM) | relative viability (Crenolanib + Luminespib; first compound 0.03162 µM) | relative viability (Crenolanib + Luminespib; first compound 0.1 µM) | relative viability (Crenolanib + Luminespib; first compound 0.3162 µM) | relative viability (Crenolanib + Luminespib; first compound 1 µM) | relative viability (Crenolanib + Pictilisib; first compound 0.01 µM) | relative viability (Crenolanib + Pictilisib; first compound 0.03162 µM) | relative viability (Crenolanib + Pictilisib; first compound 0.1 µM) | relative viability (Crenolanib + Pictilisib; first compound 0.3162 µM) | relative viability (Crenolanib + Pictilisib; first compound 1 µM) | relative viability (Tivantinib + OSI-027; first compound 0.01 µM) | relative viability (Tivantinib + OSI-027; first compound 0.03162 µM) | relative viability (Tivantinib + OSI-027; first compound 0.1 µM) | relative viability (Tivantinib + OSI-027; first compound 0.3162 µM) | relative viability (Tivantinib + AZD7762; first compound 0.01 µM) | relative viability (Tivantinib + AZD7762; first compound 0.03162 µM) | relative viability (Tivantinib + AZD7762; first compound 0.1 µM) | relative viability (Tivantinib + AZD7762; first compound 0.3162 µM)
1 | NCI-H650 | 0.839 | 0.791 | 0.777 | 0.872 | 0.757 | 0.9 | 0.806 | 0.901 | 0.801 | 0.83 | 0.542 | 0.403 | 0.501 | 0.641 | 1.17 | 0.818 | 1 | 1.21
2 | NCI-H727 | 0.353 | 0.376 | 0.264 | 0.428 | 0.376 | 0.491 | 0.634 | 0.342 | 0.473 | 0.418 | 0.781 | 0.484 | 0.515 | 0.468 | 0.535 | 0.421 | 0.551 | 
3 | NCI-H838 | 0.353 | 0.235 | 0.29 | 0.301 | 0.373 | 0.492 | 0.499 | 0.418 | 0.418 | 0.381 | 0.394 | 0.377 | 0.345 | 0.363 | 1 | 0.973 | 0.872 | 0.906
4 | NCI-H1355 | 0.741 | 0.777 | 0.65 | 0.721 | 0.665 | 0.459 | 0.48 | 0.436 | 0.402 | 0.389 | 0.434 | 0.348 | 0.401 | 0.356 | 0.756 | 0.819 | 0.794 | 0.637
5 | NCI-H1395 | 0.686 | 0.803 | 0.698 | 0.763 | 0.58 | 0.655 | 0.562 | 0.708 | 0.789 | 0.553 | 0.678 | 0.662 | 0.651 | 0.599 | 0.406 | 0.405 | 0.395 | 0.371
6 | NCI-H1437 | 1.18 | 1.17 | 1.1 | 1.21 | 0.911 | 0.548 | 0.517 | 0.549 | 0.495 | 0.571 | 0.911 | 0.795 | 0.811 | 0.886 | 1.22 | 1.16 | 1.11 | 0.96
7 | NCI-H1651 | 0.867 | 0.926 | 0.711 | 0.875 | 0.748 | 0.568 | 0.511 | 0.52 | 0.548 | 0.502 | 0.846 | 0.654 | 0.625 | 0.713 | 0.452 | 0.404 | 0.437 | 0.353
8 | NCI-H1666 | 1.07 | 1.11 | 0.991 | 0.977 | 1.03 | 0.605 | 0.352 | 0.401 | 0.406 | 0.411 | 0.83 | 0.743 | 0.876 | 0.687 | 0.904 | 0.841 | 0.835 | 0.705
